{
  "source": "patent EP1101499A2",
  "about": "“Diagnostic agents for pancreatic exocrine function” (Tokyo Gas Company Limited, priority 1999, dated 2001)",
  "key": {"[1]": {"test_system": "pancreatic exocrine function", "test": "13C-breath test after oral administration to chronic pancreatitis (oleic acid model) and control/normal rats", "type": "in vivo, rat", "conditions": "for Δ^13C (mean) value at 15 minutes after the administration: mean n=2, 420 mg/kg orally; for Δ^13C value at 30 minutes after the administration: group value n=4, 30 mg/kg orally; for Δ^13C value at 10 minutes after the administration / Δ^13C value at 20 minutes after the administration: group value n=4, 250 mg/kg orally", "experimental": "[…] The rat of 9 weeks old was fixed without anesthesia in a rat holder for a microwave irradiation apparatus. The breath was collected at a rate of about 100 to 300 ml/min using a stroke pump (Variable Stroke Pump VS-500, Shibata Kagaku Kogyo) and introduced directly to a flow cell of a ^13CO2 analyzer EX-130S (Nihon Bunko). A Perma Pure drier (MD-050-12P, Perma Pure INC.) was set between the rat holder and stroke pump to remove out water vapor in the breath. CO2 concentration was stabilized, the rat was once removed out of the rat holder and Bz-DL-Phe-(^13C-Leu).Na dissolved in distilled water was administered into the stomach using an oral sonde.\nOutput data from the ^13CO2 analyzer were AD converted and put into a personal computer (Apple Power Macintosh 8500). Using a data processing soft ware Lab VIEW (National Instruments), 10 data points at every 100 msec were integrated and averaged in an interval of 5 seconds and converted to ^13C atom %, Δ^13C (‰), and CO2 concentration (%). In this manner, the ^13C breath test was continuously carried out. […] CO2 concentration in the collected breath was held at 3 ± 0.5%.\nΔ^13C (%o) was calculated from the ^13C concentration in the exhaled CO2 at each time point (^13C tmin) and the ^13C concentration in standard CO2 (^13C std) according to the following equation: Δ^13 (C (‰) - [()^13 (C tmin -)^13 (C 0min)/)^13 C std] x 1000 [formula]"}, "[2]": {"test_system": "pancreatic exocrine function", "test": "PFD test: oral BT-PABA, PABA excretion rate in urine", "type": "in vivo, rat", "conditions": "specificity 100%", "experimental": "The rats of the model of chronic pancreatitis and control rats, which were kept for 3 to 4 weeks after the operation, were made to fast from 9:00 AM. At 4:00 PM, 3 mg/ml of BT-PABA (PFD solution for internal use, Eisai) was orally administered in an amount of 15 mg/kg. Urine was collected for 16 hours until 9:00 AM of the next day. The amount of the collected urine and the PABA concentration in the urine were determined using a PABA measuring kit to determine the excretion rate in urine (PFD test)."}, "chymotrypsin": {"test_system": "chymotrypsin", "test": "Degradation by chymotrypsin, released leucine determined by ninhydrin reaction", "type": "biochemical, bovine", "conditions": "23 mM substrate, 0.16 mg/ml chymotrypsin, 20 mM HEPPS-Na pH 8.0, 37°C, 15 minutes", "experimental": "Bz-DL-Phe-(^13C-Leu) was reacted with chymotrypsin and the degradation product, leucine, generated upon action of chymotrypsin was quantitatively determined by ninhydrin reaction. The reaction was carried out in 20 mM HEPPS-Na (pH 8.0), 23 mM Bz-DL-Phe- (^13C-Leu), 0.16 mg/ml chymotrypsin (from bovine pancreas, Worthington Biochemical Corporation, #1432, Lot 37A906) at 37°C for 15 minutes. After reaction, 50 µl of citrate buffer (citric acid monohydrate), 20 µl of ninhydrin solution (50 mg/ml solution in methyl cellosolve) and 100 µl of KCN solution (0.01 M aqueous KCN solution diluted 50 times with methyl cellosolve) were added to 100 µl of the reaction mixture and heated at 100°C for 15 minutes. After cooling the ninhydrin reaction mixture to room temperature, 150 µl of 60% (V/V) ethanol was added to 100 µl of the ninhydrin reaction mixture and stirred followed by determination of an absorbance at a wave length of 570 nm. An experiment wherein all the reactions that were carried out without adding Bz-DL-Phe-(^13C-Leu) was taken as a \"blank,\" and leucine was used as a standard."}, "[3]": {"conditions": "individual chronic pancreatitis rats #1-#4, sodium salt 250 mg/kg orally"}, "[4]": {"conditions": "individual normal rats #1-#4, sodium salt 250 mg/kg orally"}},
  "note": "Where “and” joins values, the source holds several entries; their conditions need not be identical. Identical values can stand only once.",
  "data": [
    {"compound": "Bz-L-Phe-(^13C-Leu)", "values": [
      {"measurement": "Δ^13C (%o) at 10 min", "setting": "[1]; [3]", "value": "1.61 %o and 3.28 %o and 17.21 %o and 5.77 %o"},
      {"measurement": "Δ^13C (%o) at 10 min", "setting": "[1]; [4]", "value": "31.29 %o and 60.25 %o and 165.37 %o and 203.16 %o"}
    ]},
    {"compound": "Bz-DL-Phe-(^13C-Leu).Na", "values": [
      {"measurement": "sensitivity", "setting": "[1]; 250 mg/kg orally, Δ^13C at 10 minutes as check value, cut off set for specificity 100%, chronic pancreatitis n=8, control n=4", "value": 100, "unit": "%"},
      {"measurement": "Δ^13C (‰) values at 10 minutes after the administration", "setting": "[1]; chronic pancreatitis rats (n=8) compared with control rats (n=4), 250 mg/kg orally", "value": "smaller than the smallest value of Δ ^13C (‰) for the control rats"}
    ]},
    {"compound": "Bz-Ala-Ala-Ala-Ala-(^13C-Gly)-Phe-Leu.Na", "values": [
      {"measurement": "Δ^13C (mean) value at 15 minutes after the administration", "setting": "[1]; chronic pancreatitis rats", "value": 0.61, "unit": "%o"},
      {"measurement": "Δ^13C (mean) value at 15 minutes after the administration", "setting": "[1]; normal rats", "value": 33.32, "unit": "%o"}
    ]},
    {"compound": "Arg-(^13C-Leu)", "values": [
      {"measurement": "Δ^13C value at 30 minutes after the administration", "setting": "[1]; chronic pancreatitis rats", "value": "4.37 ± 1.83", "unit": "%o"},
      {"measurement": "Δ^13C (%o) at 30 min", "setting": "[1]; individual chronic pancreatitis rats #1-#4, 30 mg/kg orally", "value": "3.74 %o and 6.97 %o and 4.87 %o and 1.92 %o"},
      {"measurement": "Δ^13C (%o) at 30 min", "setting": "[1]; individual normal rats #1-#4, 30 mg/kg orally", "value": "10.30 %o and 13.74 %o and 15.37 %o and 10.08 %o"},
      {"measurement": "Δ^13C value at 30 minutes after the administration", "setting": "[1]; normal rats", "value": "12.37 ± 2.26", "unit": "%o"}
    ]},
    {"compound": "Bz-Ala-Ala-Ala-Ala-(^13C-Gly)-Phe-Leu", "values": [
      {"measurement": "Δ^13C (%o) at 15 min", "setting": "[1]; individual chronic pancreatitis rats #1-#2, sodium salt 420 mg/kg orally", "value": "-1.90 %o and 3.12 %o"},
      {"measurement": "Δ^13C (%o) at 15 min", "setting": "[1]; individual normal rats #1-#2, sodium salt 420 mg/kg orally", "value": "23.47 %o and 43.16 %o"}
    ]},
    {"compound": "Bz-Tyr-(^13C-Leu)", "values": [
      {"measurement": "Δ^13C (%o) at 20 min", "setting": "[1]; [3]", "value": "8.76 %o and 3.58 %o and 2.44 %o and -0.15 %o"},
      {"measurement": "Δ^13C (%o) at 20 min", "setting": "[1]; [4]", "value": "111.32 %o and 65.76 %o and 21.02 %o and 80.02 %o"}
    ]},
    {"compound": "Bz-Gly-(^13C-Leu)-Na", "values": [
      {"measurement": "sensitivity", "setting": "[1]; 50 mg/kg orally, Δ^13C at 18 minutes as check value, specificity 100%, chronic pancreatitis n=10, normal n=10", "value": 80, "unit": "%"}
    ]},
    {"compound": "O=C(O)c1ccc(NC(=O)[C@H](Cc2ccc(O)cc2)NC(=O)c2ccccc2)cc1", "note": "[PFD, N-benzoyl-L-tyrosyl-p-aminobenzoic acid]", "values": [
      {"measurement": "sensitivity in the PFD test", "setting": "[2]; 15 mg/kg orally, same group of rats as the Bz-DL-Phe-(^13C-Leu) breath test (n=8 / n=4)", "value": 50, "unit": "%"},
      {"measurement": "sensitivity in the PFD test", "setting": "[2]; same group of rats as the Bz-Ala-(^13C-Ala) breath test (n=8 / n=7)", "value": 63, "unit": "%"},
      {"measurement": "sensitivity in the PFD test", "setting": "[2]; same group of rats as the Bz-Gly-(^13C-Leu) breath test (n=10 / n=10)", "value": 50, "unit": "%"}
    ]},
    {"compound": "Bz-L-Phe-(^13C-Leu).Na", "values": [
      {"measurement": "Δ^13C value at 10 minutes after the administration", "setting": "[1]; chronic pancreatitis rats", "value": "6.97 ± 6.09", "unit": "%o"},
      {"measurement": "Δ^13C value at 10 minutes after the administration", "setting": "[1]; normal rats", "value": "115.02 ± 71.26", "unit": "%o"}
    ]},
    {"compound": "Bz-DL-Phe-(^13C-Leu)", "values": [
      {"measurement": "rate of degradation", "setting": "chymotrypsin", "value": 1.72, "unit": "nmole/mg chymotrypsin/min"}
    ]},
    {"compound": "Bz-Tyr-(^13C-Leu).Na", "values": [
      {"measurement": "Δ^13C value at 20 minutes after the administration", "setting": "[1]; chronic pancreatitis rats", "value": "3.66 ± 3.24", "unit": "%o"},
      {"measurement": "Δ^13C value at 20 minutes after the administration", "setting": "[1]; normal rats", "value": "69.53 ± 32.50", "unit": "%o"}
    ]}
  ]
}
